Patent US9113629B2, “4-amino-6-(4-substituted-phenyl)-picolinates and 6-amino-2-(4-substituted-phenyl)-pyrimidine-4-carboxylates and their use as herbicides” (DOW AGROSCIENCES LLC, priority 2013, dated 2015)
Read-outs that look alike come from different tables or passages of the source.

Assays:
[1] = test system: Key Broadleaf Weed and Crop Species; test: Post-emergent Test II herbicidal activity (Table 5); type: in vivo; settings: post-emergence, 336 h, post-emergent, 14 days after application; for pest or weed control at 70 g/ha: 70 g ai/ha; for pest or weed control at 140 g/ha: 140 g ai/ha
Outline: (§1)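 Scoring: visual, 0–100% injury at 14 d versus untreated. Treatment: overhead track spray, 187 L/ha, onto plants at the first–second true leaf stage. Growth: greenhouse, ~15 h light, 23–29 °C day, 22–28 °C night.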

[2] = test system: Key Grass and Sedge Weeds as well as Grass Crops; test: Post-emergent Test II herbicidal activity (Table 6); type: in vivo; settings: post-emergence, 336 h; for pest or weed control at 70 g/ha: application rate 70 g ai/ha; for pest or weed control at 140 g/ha: application rate 140 g ai/ha
Outline: as §1

[3] = ABUTH: velvetleaf (Abutilon theophrasti), read-out: Visual Growth Reduction (%) 14 Days After Application ABUTH
[4] = AMARE: redroot pigweed (Amaranthus retroflexus), read-out: Visual Growth Reduction (%) 14 Days After Application AMARE
[5] = BRSNN: oilseed-rape, canola (Brassica napus), read-out: Visual Growth Reduction (%) 14 Days After Application BRSNN
[6] = CHEAL: lambsquarters (Chenopodium album), read-out: Visual Growth Reduction (%) 14 Days After Application CHEAL
[7] = EPHHL: wild poinsettia (Euphorbia heterophylla), read-out: Visual Growth Reduction (%) 14 Days After Application EPHHL
[8] = HELAN: sunflower (Helianthus annuus), read-out: Visual Growth Reduction (%) 14 Days After Application HELAN
[9] = VIOTR: wild pansy (Viola tricolor), read-out: Visual Growth Reduction (%) 14 Days After Application VIOTR
[10] = CYPES: yellow nutsedge (Cyperus esculentus), read-out: Visual Growth Reduction (%) 14 Days After Application, CYPES
[11] = DIGSA: crabgrass (Digitaria sanguinalis), read-out: Visual Growth Reduction (%) 14 Days After Application, DIGSA
[12] = ECHCG: barnyardgrass (Echinochloa crus-galli), read-out: Visual Growth Reduction (%) 14 Days After Application, ECHCG
[13] = ORYSA: rice (Oryza sativa), read-out: Visual Growth Reduction (%) 14 Days After Application, ORYSA
[14] = SETFA: giant foxtail (Setaria faberi), read-out: Visual Growth Reduction (%) 14 Days After Application, SETFA
[15] = SORVU: grain sorghum (Sorghum vulgare), read-out: Visual Growth Reduction (%) 14 Days After Application, SORVU
[16] = TRZSS (wheat, Triticum aestivum), read-out: Visual Growth Reduction (%) 14 Days After Application, TRZSS
[17] = ZEAMX: maize, corn (Zea mays), read-out: Visual Growth Reduction (%) 14 Days After Application, ZEAMX

melting point: 96 to 98 °C
SMILES: COC(=O)c1nc(-c2cc(F)c(C(F)(F)F)cc2F)nc(N)c1OC [Compound 148, methyl 6-amino-2-(2,5-difluoro-4-(trifluoromethyl)phenyl)-5-methoxypyrimidine-4-carboxylate]
pest or weed control at 70 g/ha [1, 3]: 75 to 84%
pest or weed control at 140 g/ha [1, 3]: 75 to 84%
pest or weed control at 70 g/ha [1, 4]: 0 to 29%
pest or weed control at 140 g/ha [1, 4]: 0 to 29%
pest or weed control at 70 g/ha [1, 5]: 45 to 59%
pest or weed control at 140 g/ha [1, 5]: 60 to 74%
pest or weed control at 70 g/ha [1, 6]: 85 to 94%
pest or weed control at 140 g/ha [1, 6]: 95 to 100%
pest or weed control at 70 g/ha [1, 7]: 85 to 94%
pest or weed control at 140 g/ha [1, 7]: 75 to 84%
pest or weed control at 70 g/ha [1, 8]: 45 to 59%
pest or weed control at 140 g/ha [1, 8]: 60 to 74%
pest or weed control at 70 g/ha [1, 9]: 45 to 59%
pest or weed control at 140 g/ha [1, 9]: 60 to 74%
pest or weed control at 70 g/ha [2, 10]: 60 to 74%
pest or weed control at 140 g/ha [2, 10]: 75 to 84%
pest or weed control at 70 g/ha [2, 11]: 0 to 29%
pest or weed control at 140 g/ha [2, 11]: 0 to 29%
pest or weed control at 70 g/ha [2, 12]: 0 to 29%
pest or weed control at 140 g/ha [2, 12]: 0 to 29%
pest or weed control at 70 g/ha [2, 13]: 0 to 29%
pest or weed control at 140 g/ha [2, 13]: 30 to 44%
pest or weed control at 70 g/ha [2, 14]: 0 to 29%
pest or weed control at 140 g/ha [2, 14]: 0 to 29%
pest or weed control at 70 g/ha [2, 15]: 0 to 29%
pest or weed control at 140 g/ha [2, 15]: 0 to 29%
pest or weed control at 70 g/ha [2, 16]: 30 to 44%
pest or weed control at 140 g/ha [2, 16]: 60 to 74%
pest or weed control at 70 g/ha [2, 17]: 0 to 29%
pest or weed control at 140 g/ha [2, 17]: 30 to 44%
